From patent US8318638B2, “Plant activator” (Shiseido Company, Ltd., priority 1999, dated 2012)

Tests used:
Eustoma russellianum = assay: Growth promotion effect on Eustoma russellianum; type: in vivo
Begonia sempaflorens = assay: Growth promotion effect on Begonia sempaflorens; type: in vivo; conditions: 80 μm aqueous solution, five consecutive days then once a week for six weeks; four months after last spraying; FIG. 10
Experimental: Two weeks after seeding of Begonia sempaflorens, spraying of an 80 μm specific ketol fatty acid (I) aqueous solution was carried out for five consecutive days. Furthermore, three months after the start of the test, spraying of an 80 μm specific ketol fatty acid (I) aqueous solution was carried out for six weeks (once a week). Four months after the last spraying, the leave size was measured.

cyclamen = assay: Growth promotion effect on cyclamen; type: in vivo; conditions: 50 μm aqueous solution sprayed five consecutive days, four months after seeding; observed for 48 days; FIG. 5
Experimental: Four months after seeding of cyclamen, spraying of a 50 μm specific ketol fatty acid (I) aqueous solution was carried out for five consecutive days. […] The plant width and the number of leaves were both increased.

[1] = tested on: Dianthus caryophyllus (feeling scarlet); assay: Growth promotion effect on Dianthus caryophyllus; type: in vivo; conditions: 100 μm aqueous solution sprayed once, 5 mL per plant; FIG. 11
Experimental: Seedlings of Dianthus caryophyllus (feeling scarlet) were planted in early October, and then grown by means of a customary method. In mid-April of the next year, spraying of a 100 μm specific ketol fatty acid (I) aqueous solution was carried out (5 mL per plant), and then the height of the plants was measured.

lettuce = assay: Growth promotion effect on lettuce; type: in vivo; conditions: 50 μM aqueous solution sprayed five consecutive days
Experimental: One month after seeding of lettuce, spraying of a 50 μM specific ketol fatty acid (I) aqueous solution was carried out for five consecutive days, and growth of the lettuce (plant width) was observed.

[2] = tested on: hyphae of P. citrinopileatus; assay: Effect of proliferating hyphae of P. citrinopileatus Sing.; type: cell-based, Pleurotus citrinopileatus Sing.; conditions: 10 μM, 30 μM, 100 μm in potato-dextrose-agar medium; 37° C.; FIG. 15
Experimental: A potato-dextrose-agar culture medium was sterilized by use of an autoclave. After the medium was cooled to a temperature at which the agar was not solidified, a 1 mM specific ketol fatty acid (I) aqueous solution which had been sterilized by use of a membrane filter was added to the medium, to thereby prepare four culture media; i.e., a culture medium containing 0 μM of the fatty acid (I), a culture medium containing 10 μM of the fatty acid (I), a culture medium containing 30 μM of the fatty acid (I), and a culture medium containing 100 μm of the fatty acid (I). Each of the culture media was solidified in a 10-cm plate, and then hyphae of P. citrinopileatus (one platinum loop) was inoculated on the medium. Subsequently, the hyphae were cultured at 37° C., and proliferation of the hyphae was observed (10 plates for each group). Proliferation of the hyphae was evaluated on the basis of the average of the diameters of the proliferated hyphae on the plate.

Primula melacoides = assay: Growth promotion effect on Primula melacoides; type: in vivo; conditions: 80 μM aqueous solution, five consecutive days then once a week for six weeks; six-and-a-half months after last spraying; FIG. 9
Experimental: One-and-a-half months after seeding of Primula melacoides, spraying of an 80 μm specific ketol fatty acid (I) aqueous solution was carried out for five consecutive days. Furthermore, four months after the start of the test, spraying of an 80 μM specific ketol fatty acid (I) aqueous solution was carried out for six weeks (once a week). Bolting was not observed at a nutrition growth stage of the Primula melacoides. Six-and-a-half months after the last spraying, the plant width and the leave size were measured.

[3] = tested on: morning glory (variety: murasaki); assay: Growth promotion effect on morning glory; type: in vivo; conditions: 100 μm aqueous solution sprayed; measured on the 16th day; N=8; FIG. 1
Experimental: Seeds of morning glory (variety: murasaki) (9 g) were subjected to concentrated sulfuric acid treatment for 20 minutes, and then allowed to stand under water flow overnight. Subsequently, the seeds were placed on wet sea sand such that the hila of the seeds were directed upward for 24 hours, to thereby produce roots. The seeds having roots were planted in sea sand at a position 1.5-2.0 cm below the surface of the sand, and then cultured under continuous light irradiation (for about five days).
The entire plant bodies of the morning glory having leaves produced through this culture were transferred into a culture solution [KNO2 (250 mg), NH4NO2 (250 mg), KH2PO4 (250 mg), MgSO4.7H2O (250 mg), MnSO4.4H2O (1 mg), Fe-citrate n-hydrate (6 mg), H3BO3 (2 mg), CuSO4.5H2O (0.1 mg), ZeSO4.7H2O (0.2 mg), Na2MoO4.2H2O (0.2 mg), and Ca(H2PO4)22H2O (250 mg) in distilled water (1,000 mL)].
Water or a 100 μm specific ketol fatty acid (I) aqueous solution was sprayed to the cultured morning glory, which was then placed in the dark overnight (for 14 hours). Thereafter, the morning glory was grown under continuous light irradiation at 25° C. for 16 days, and on the 16th day the height of the plant was measured (N=8). The average of the heights of the plants is shown in FIG. 1 [note: “I” shown in FIG. 1 refers to “specific ketol fatty acid (I)”; the same shall apply to the below-described Figs.].

Oryza sativa L. = assay: Growth controlling effect on Oryza sativa L. in paddy field (spraying); type: in vivo
Experimental: (2) Seedlings of Oryza sativa L. were grown in a seedbed in a manner similar to that described in (1), except that the seedlings were immersed in ion-exchange water at 10° C. for 15 days, without application of specific ketol fatty acid (I) described above in (1). Subsequently, the resultant seedlings which had been divided into five groups, each group containing three subgroups (only control group containing four subgroups) and each subgroup containing 16 seedlings, were exposed to the outside environment. Immediately after this exposure, spraying of specific ketol fatty acid (I) was carried out (0 ppm for a first group (control group), 25 ppm for second and third groups, 50 ppm for fourth and fifth groups). Thirty days after the spraying, the seedlings were planted in a paddy field, and additional spraying of specific ketol fatty acid (I) (25 ppm) was carried out for two groups; i.e., the third group (total amount of the acid (I): 25+25 ppm) and the fifth group (total amount of the acid (I): 50+25 ppm). Subsequently, the seedlings of the Oryza sativa L. were grown in the paddy field by means of a customary method. Forty-one days after the above planting, in each group, the plant height and the number of stems per plant (at a section at which four seedlings were planted) were measured, and then averaged.

[4] = fifth group: 50+25 ppm sprayed, 41 days after planting
[5] = fourth group: 50 ppm sprayed, 41 days after planting
[6] = second group: 25 ppm sprayed, 41 days after planting
[7] = third group: 25+25 ppm sprayed, 41 days after planting

## CC/C=C\C/C=C\CC(=O)C(O)CCCCCCCC(=O)O (centres unmarked) [specific ketol fatty acid (I), 9-hydroxy-10-oxo-12(Z),15(Z)-octadecadienoic acid]
Eustoma russellianum; 50 μm aqueous solution sprayed to rosette leaves five consecutive days, three months after seeding
  bolting: bolting was observed immediately after the spraying
Eustoma russellianum; 50 μm aqueous solution, observed for 48 days
  plant width: did not increase as had been expected
Eustoma russellianum; 50 μm aqueous solution, observed for 48 days, FIG. 4
  plant height: continued to increase 48 days after observation of growth
Begonia sempaflorens
  leave size: growth of the leaves is promoted
cyclamen
  number of leaves: increased
  plant width: increased
[1]
  height of the plants: growth of the Dianthus caryophyllus plant was promoted
lettuce
  duration of growth promotion effect: maintained 48 days after the start of the test
lettuce; one month after seeding, FIG. 2
  growth of the lettuce (plant width): exerts the effect of promoting growth of the lettuce
[2]
  degree of proliferation of the hyphae (average diameter on plate): dependent on the concentration
Primula melacoides
  leave size: increased
  plant width: increased
[3]
  height of the plant: becomes larger
Oryza sativa L.; 25 to 50+25 ppm, 41 days after planting
  plant height, difference between groups incl. control: significant difference was not observed
Oryza sativa L.; each of the second through fifth groups
  number of stems per plant greater than control group: about 10%
Oryza sativa L.; [4]
  number of stems per plant: 37
  plant height: 58 cm
Oryza sativa L.; [5]
  number of stems per plant: 38
  plant height: 58 cm
Oryza sativa L.; [6]
  number of stems per plant: 38
  plant height: 57 cm
Oryza sativa L.; [7]
  number of stems per plant: 39
  plant height: 57 cm
